The results in this text go back to patent publication US10442763B2, “EBNA1 inhibitors and methods using same” (priority 2015, dated 2019).

One may read the IC50 as the concentration at which inhibition is half-maximal.

The target of the test is T1, His-EBNA1 (DNA binding domain of EBNA1, amino acids 459-607) (Epstein-Barr virus, UniProt P03211).
T1 construct: made in house; host or cells: E. coli
T1 sequence (P03211 459-607): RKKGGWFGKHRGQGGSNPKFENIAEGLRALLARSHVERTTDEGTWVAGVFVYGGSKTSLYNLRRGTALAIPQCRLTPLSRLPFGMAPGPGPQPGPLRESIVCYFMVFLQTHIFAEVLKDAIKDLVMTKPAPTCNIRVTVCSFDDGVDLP
Kind of test: Inhibition of 5'-biotin-oPL4624 binding to His-EBNA1 using Alpha Screen technology. As to the method:
Inhibition of 5′-Biotin-oPL4624 Binding to his-EBNA1 Using Alpha Screen Technology
Assays were performed using the DNA binding domain of EBNA1 (amino acids 459-607), which was His-tagged (His-EBNA1) and the self-complementary biotinylated (bt) oligonucleotide with the sequence 5′-bt-[…]-ATGCTACCC-3′ (bt-oPL4624; or 5′-bt-SEQ ID NO: 1). The protein was expressed in E. coli and purified according to Barwell, et al., 1995, J Biol Chem. 270:20556-9.). The bt-oPL4624 oligonucleotide was purchased from Integrated DNA Technologies, Inc (IDT). AlphaScreen donor, acceptor beads and white, opaque 384-well assay plates were purchased from PerkinElmer, Inc.
Assays contained 15 nM His-EBNA1, 0.2 nM bt-oPL4624, 5 μg/mL AlphaScreen streptavidin donor beads and nickel chelate acceptor beads, and a series of concentrations of test compound ranging from 3.2 nM to 100 μM in a total volume of 40 μL assay buffer (25 mM Tris, pH 7.2, 160 mM NaCl, 1 mM MgCl2). His-EBNA1 (30 nM) and bt-oPL4624 (0.4 nM) were preincubated with 10 μg/mL nickel chelate AlphaScreen acceptor bead, or 10 μg/mL streptavidin AlphaScreen donor bead, respectively, for 30 minutes at room temperature in assay buffer. Twenty microliters of His-EBNA1/acceptor bead mix and bt-oPL4624/donor bead mix were transferred to assay plates containing 0.4 μL of 1:3 serial dilutions of test compounds previously prepared in DMSO at concentrations ranging from 0.32 μM to 10 mM. Non-specific binding was determined with 5 μg/mL AlphaScreen acceptor bead in the absence of His-EBNA1. After 2 hr incubation at room temperature, the AlphaScreen signal was measured on the Envision plate reader (PerkinElmer, Inc.) at 680 nm excitation and 570 nm emission. Inhibition values at each concentration of test compound were determined by setting 100% equal to raw data values in the absence of EBNA1 and 0% equal to the raw data values in the presence of EBNA1. Nonlinear regression fits of the inhibition values to a one-site dose-response equation were performed using GraphPad Prism.
Compound `COc1cccc(C)c1NC(=O)c1cccc(C#Cc2cccc(C(=O)O)c2-c2ccc3cc[nH]c3c2)c1` [Entry 137] showed an IC50 of 1 to 10 µM.
The same measure for `CS(=O)(=O)N1CC2(CCN(Cc3ccc(C#Cc4cccc(C(=O)O)c4-c4ccc5cc[nH]c5c4)cc3)CC2)C1` [Entry 188]: 10 to 100 µM.
The same measure for `O=C(O)c1cccc(C#Cc2cc3c(CN4CCOCC4)c[nH]c3cc2F)c1-c1ccc2cc[nH]c2c1` [Entry 40]: 10 to 100 µM.
The same measure for `CS(=O)(=O)N1CCN(Cc2ccc(C#Cc3cccc(C(=O)O)c3-c3ccc4cn[nH]c4c3)cc2)CC1` [Entry 204]: 10 to 100 µM; for `O=C(O)c1cccc(C#Cc2ccc(CN3CCN(S(=O)(=O)c4ccccc4)CC3)cc2)c1-c1ccc2cc[nH]c2c1` [Entry 168]: 1 to 10 µM; for `O=C(O)c1cccc(C#Cc2cc3ccn(CC4CCOCC4)c3cc2F)c1-c1ccc2cc[nH]c2c1` [Entry 35]: 1 to 10 µM.
In turn, `O=C(O)c1cccc(C#Cc2ccc(COc3cccnc3)cc2)c1-c1ccc2cc[nH]c2c1` [Entry 90] yielded an IC50 of 1 to 10 µM.
The same measure for `CS(=O)(=O)N1CCc2cc(C#Cc3cccc(C(=O)O)c3-c3ccc4cc[nH]c4c3)ccc2C1` [Entry 76]: 1 to 10 µM.
Compound `COc1ccc(C#Cc2cccc(C(=O)O)c2-c2cnc3[nH]ccc3c2)cc1` [Entry 141] yielded an IC50 of 10 to 100 µM.
The figure for `CS(=O)(=O)N1CCN(Cc2ccc(C#Cc3cccc(C(=O)O)c3-c3ccc4cc[nH]c4c3)cc2)CC1` [Entry 161] is 10 to 100 µM.
The same measure for `Nc1ncc(-c2ccc(C#Cc3cccc(C(=O)O)c3-c3ccc4cc[nH]c4c3)cc2)o1` [Entry 130]: 1 to 10 µM; for `CN(C)CCCn1cc(C#Cc2cccc(C(=O)O)c2-c2ccc3cc[nH]c3c2)c2cccnc21` [Entry 11]: 100 to 1000 µM.
The same measure for `CS(=O)(=O)N1CCc2ccc(C#Cc3cccc(C(=O)O)c3-c3ccc4cc[nH]c4c3)cc2C1` [Entry 73]: 1 to 10 µM; for `COC1CCN(Cc2nc(=O)c3cc(C#Cc4cccc(C(=O)O)c4-c4ccc5cc[nH]c5c4)ccc3[nH]2)CC1` [Entry 133]: 10 to 100 µM.
For `Cc1nc2cc(-c3c(C#Cc4ccccc4)cccc3C(=O)O)ccc2s1` [Entry 112], the IC50 lay in the range of 10 to 100 µM.
The figure for `CC(C)(O)c1ccc(C#Cc2cccc(C(=O)O)c2-c2ccc3cc[nH]c3c2)cc1` [Entry 120] is 1 to 10 µM.
The same measure for `CCN1CCN(Cc2ccc(C#Cc3cccc(C(=O)O)c3-c3ccc4cc[nH]c4c3)cc2)CC1` [Entry 146]: 10 to 100 µM; for `CC(=O)Nc1cc(C#Cc2cccc(C(=O)O)c2-c2ccc3cc[nH]c3c2)ccc1OC1CCOCC1` [Entry 2]: 10 to 100 µM; for `O=C(O)c1cccc(C#Cc2cnc3c(ccn3CCCN3CCOCC3)c2)c1-c1ccc2cc[nH]c2c1` [Entry 6]: 1 to 10 µM.
The compound `CS(=O)(=O)N1CCC2(CC1)CN(Cc1ccc(C#Cc3cccc(C(=O)O)c3-c3ccc4cc[nH]c4c3)cc1)C2` [Entry 192] came in with an IC50 of 10 to 100 µM.
The figure for `Nc1nc2c(s1)C[C@H](NC(=O)c1ccc(C#Cc3cccc(C(=O)O)c3-c3ccc4cc[nH]c4c3)cc1)CC2` [Entry 201] is 1 to 10 µM; for `O=C(O)c1cccc(C#Cc2ccc(CN3CCC(CO)CC3)cc2)c1-c1ccc2cc[nH]c2c1` [Entry 151] it is 10 to 100 µM; for `CC(C)S(=O)(=O)N1CCc2ccc(C#Cc3cccc(C(=O)O)c3-c3ccc4cc[nH]c4c3)cc2C1` [Entry 74] it is 1 to 10 µM.
The compound `CS(=O)(=O)N1CCC(CN2Cc3ccc(C#Cc4cccc(C(=O)O)c4-c4ccc5cc[nH]c5c4)cc3C2)C1` (stereo not shown) [Entry 70] gave a 50% inhibitory concentration (IC50) of 1 to 10 µM.
The figure for `O=C(O)c1cccc(C#Cc2ccc(CN3CCN(C4CCCC4)CC3)cc2)c1-c1ccc2cc[nH]c2c1` [Entry 170] is 10 to 100 µM.
The figure for `O=C(O)c1cccc(C#Cc2ccc3ccn(CC4CCOCC4)c3c2F)c1-c1ccc2cc[nH]c2c1` [Entry 36] is 1 to 10 µM; for `NS(=O)(=O)N1CCN(Cc2ccc(C#Cc3cccc(C(=O)O)c3-c3ccc4cc[nH]c4c3)cc2)CC1` [Entry 205] it is 1 to 10 µM.
The same measure for `O=C(O)c1cccc(C#Cc2ccc3cc(CN4CCOCC4)[nH]c3c2)c1-c1ccc2cc[nH]c2c1` [Entry 33]: 10 to 100 µM; for `O=C(O)c1cccc(C#Cc2ccc(C3(CO)COC3)cc2)c1-c1ccc2cc[nH]c2c1` [Entry 105]: 1 to 10 µM.
Take `CS(=O)(=O)c1ccccc1OCc1ccc(C#Cc2cccc(C(=O)O)c2-c2ccc3cc[nH]c3c2)cc1` [Entry 97]: the IC50 was in the range of 1 to 10 µM.
The same measure for `O=C(O)c1cccc(C#Cc2ccc(-c3nn[nH]n3)cc2)c1-c1ccc2cc[nH]c2c1` [Entry 41]: less than 1 µM.
In turn, `O=C(O)c1cccc(C#Cc2ccc3c(CN4CCOCC4)c[nH]c3c2F)c1-c1ccc2cc[nH]c2c1` [Entry 39] registered an IC50 of 1 to 10 µM.
The same measure for `O=C(O)c1cccc(C#Cc2ccccc2)c1-c1cnc2ncccc2c1` [Entry 115]: 100 to 1000 µM; for `CS(=O)(=O)N1CCC(N2Cc3ccc(C#Cc4cccc(C(=O)O)c4-c4ccc5cc[nH]c5c4)cc3C2)C1` (stereo not shown) [Entry 68]: 1 to 10 µM.
The figure for `CS(=O)(=O)Nc1cccc(CN2CCc3cc(C#Cc4cccc(C(=O)O)c4-c4ccc5cc[nH]c5c4)ccc3C2)c1` [Entry 66] is 1 to 10 µM; for `O=C(O)c1cccc(C#Cc2ccc(CNC3CCS(=O)(=O)CC3)cc2)c1-c1ccc2cc[nH]c2c1` [Entry 169] it is 10 to 100 µM; for `CC(C)OCc1ccc(C#Cc2cccc(C(=O)O)c2-c2ccc3cc[nH]c3c2)cc1` [Entry 28] it is 1 to 10 µM.
The figure for `CC(=O)N1Cc2ccc(C#Cc3cccc(C(=O)O)c3-c3ccc4cc[nH]c4c3)cc2C1` [Entry 56] is 1 to 10 µM.
The compound `CN1CCN(C(=O)c2ccc(C#Cc3cccc(C(=O)O)c3-c3ccc4cc[nH]c4c3)cc2)CC1` [Entry 202] showed an IC50 of 10 to 100 µM.
The same measure for `O=C(O)c1cccc(C#Cc2ccc(OC3CCS(=O)(=O)CC3)cc2)c1-c1ccc2[nH]ccc2c1` [Entry 184]: 1 to 10 µM; for `CCC(=O)N1CCc2cc(C#Cc3cccc(C(=O)O)c3-c3ccc4cc[nH]c4c3)ccc2C1` [Entry 79]: 1 to 10 µM; for `CC(=O)N1CCC(CN2CCc3ccc(C#Cc4cccc(C(=O)O)c4-c4ccc5cc[nH]c5c4)cc3C2)C1` (stereo not shown) [Entry 63]: 10 to 100 µM.
Take `O=C(O)c1cccc(C#Cc2ccc3c(ccn3CCN3CCS(=O)(=O)CC3)c2)c1-c1ccc2cc[nH]c2c1` [Entry 22]: the IC50 was 1 to 10 µM.
The figure for `NS(=O)(=O)c1cccc(C#Cc2cccc(C(=O)O)c2-c2ccc3cc[nH]c3c2)c1` [Entry 122] is 10 to 100 µM.
The figure for `O=C(O)c1cccc(C#Cc2ccccc2)c1-c1cc2cc[nH]c2cc1F` [Entry 114] is 10 to 100 µM; for `CS(=O)(=O)Nc1nc(-c2ccc(C#Cc3cccc(C(=O)O)c3-c3ccc4cc[nH]c4c3)cc2)cs1` [Entry 131] it is less than 1 µM; for `O=C(O)c1cccc(C#Cc2cnc3c(ccn3CCN3CCOCC3)c2)c1-c1ccc2cc[nH]c2c1` [Entry 8] it is 1 to 10 µM.
`O=C(O)c1cccc(C#Cc2cccc(CN3CCc4ccccc4C3)c2)c1-c1ccc2cc[nH]c2c1` [Entry 102]: the IC50 fell in the range of 1 to 10 µM.
`O=C(O)c1cccc(C#Cc2ccc(CN3CCN(c4nccs4)CC3)cc2)c1-c1ccc2cc[nH]c2c1` [Entry 173] displayed an IC50 of 1 to 10 µM.
On to `CS(=O)(=O)N1CCC(Cc2ccc(C#Cc3cccc(C(=O)O)c3-c3ccc4cc[nH]c4c3)cc2)CC1` [Entry 52], for which the IC50 was 1 to 10 µM.
Consider `CS(=O)(=O)N1CCC(CN2CCc3cc(C#Cc4cccc(C(=O)O)c4-c4ccc5cc[nH]c5c4)ccc3C2)CC1` [Entry 59], for which the concentration for half-maximal inhibition (IC50) lay within 10 to 100 µM.
In turn, `O=C(O)c1cccc(C#Cc2ccc3cc(CN4CCS(=O)(=O)CC4)[nH]c3c2)c1-c1ccc2cc[nH]c2c1` [Entry 34] came in with an IC50 of 1 to 10 µM.
Turning to `O=C(O)c1cccc(C#Cc2ccc3c(ccn3CCCN3CCOCC3)c2)c1-c1ccc2cc[nH]c2c1` [Entry 14], the IC50 lay within 10 to 100 µM.
The figure for `COc1cc(C#Cc2cccc(C(=O)O)c2-c2ccc3cc[nH]c3c2)ccc1CN1CCC(N2CCOCC2)CC1` [Entry 47] is 100 to 1000 µM.
The figure for `CS(=O)(=O)N1CCN(Cc2c[nH]c3cc(C#Cc4cccc(C(=O)O)c4-c4ccc5cc[nH]c5c4)ccc23)CC1` [Entry 31] is 1 to 10 µM; for `CS(=O)(=O)N1CC(CN2Cc3ccc(C#Cc4cccc(C(=O)O)c4-c4ccc5cc[nH]c5c4)cc3C2)C1` [Entry 71] it is 10 to 100 µM; for `Nc1nnc(-c2ccc(C#Cc3cccc(C(=O)O)c3-c3ccc4cc[nH]c4c3)cc2)s1` [Entry 127] it is 1 to 10 µM.
The figure for `O=C(NCc1ccc(C#Cc2cccc(C(=O)O)c2-c2ccc3cc[nH]c3c2)cc1)c1ccccc1` [Entry 197] is 1 to 10 µM.
